Like-named read-outs stand apart in the source and are kept apart here. Each block holds one compound with its values, some of them ahead of it.
What was measured:
[1] = system: ARPE-19 cells; test: 5FC sensitivity of cells transfected with CD gene; assay type: cell-based, human; conditions: ARPE-19 transfected with CD gene
Description: ARPE-19 and CD Expression. […] The purpose of the screen was to eliminate 5FU-resistant cells with the expectation that it would be difficult to use CD as a kill system in such cells. We conclude that lack of cytotoxicity with CD transgene and 5FC treatment in these cells is, at least in part, due to the insensitivity of these cells to 5FU cytotoxicity. The 5-FC and CD cell suicide safety system may not readily be an effective safety system with ARPE-19 cells.

[2] = system: K3.31; test: 5FC and 5FU dose-response in BDNF-expressing CRL 5803 line and CD transfectants; assay type: cell-based; conditions: Homo sapiens; K3.31 transfected with CD gene; read-out: 5FC IC50
Method: (§1) CRL 5803 cells expressing BDNF and CD: The CRL 5803 cell line was transfected with BDNF and clones expressing BDNF were selected. These selected clones were expanded to provide cells for transfections with cytosine deaminase plasmid (CX014). Four CD gene transfection studies were performed with three different BDNF-expressing cell lines. For each cell line at least 24 resistant clones were picked and screened for sensitivity to 100 μM 5FC. The clones with the lowest survival in 5FC (as percent of control wells) were then expanded for dose-response studies with 5FC and 5FU. Cytotoxicity of 5FC was used as an indication of CD gene expression, and this screen provided 6-9 clones per transfection. The IC50 for 5FU indicated the maximum potential cytotoxicity of the prodrug, 5FC, in cells expressing sufficient levels of CD gene and protein.

[3] = system: K3.4; test: as above; assay type: cell-based; conditions: Homo sapiens, read-out: 5FC IC50
Method: as §1

[4] = system: K3.3; test: as above; assay type: cell-based; conditions: Homo sapiens; K3.3 transfected with CD gene; read-out: 5FC IC50
Method: as §1

[5] = system: human colon tumor cells; test: 5FC sensitivity of cells expressing WT-CD transgene; assay type: cell-based
[6] = system: CRL5816 cells; test: as above; assay type: cell-based; conditions: Homo sapiens
[7] = system: human kidney cells 293 cells; test: as above; assay type: cell-based; conditions: HEK293, 293 cells expressing WT-CD transgene
[8] = system: HT1080 cells (CD clone); test: 5FC sensitivity of cells expressing WT CD gene; assay type: cell-based, human
Description: HT1080 cells and CD Expression, The HT1080 cell line was obtained from the ATCC and transfected with the WT CD gene of the present invention. A clone was isolated that had high expression of immunoreactive CD. […] This represents toxicity at about 100-fold lower concentrations of 5FC than achieved by others with HT1080 cells (Dachs, et al., Nature Medicine 3:515-20, 1997).

[9] = system: CCL205 polyclone; conditions: CMV promoter polyclone
Method: (§4) In an effort to address this issue we used plasmids we had constructed that used either of three viral promoter/enhancers: CMV, SV40, or RSV. These viral regulatory elements were used to direct the expression of the selectable marker for Zeocin, a bleomycin binding protein (BBP) that inactivates the drug by binding, rather than enzymatic degradation. The resistant colonies produced by these transfections were grown as polyclones for each different promoter.
The growth of CCL205 cells was slow enough that for IC50 calculations the final viable mass was used rather than growth.

[10] = system: ARPE-19 polyclone; test: Zeocin dose-response of growth in BBP-transfected polyclones; assay type: cell-based, human
[11] = system: CRL 5803 polyclones
Method: as §4

[12] = system: CRL1440 polyclones; test: Zeocin dose-response of growth in BBP-transfected polyclones
Method: as §4
Polyclones were expanded in 300 μg/ml Zeocin for SV40 and CMV promoter plasmids, and then plated to determine IC50s for growth at varied Zeocin doses.

[13] = system: ARPE-19; assay type: cell-based, human
Method: (§2) The cell lines were plated in 48 well plates at an appropriate dilution of cells for each cell line to provide for rapid entry into log phase of growth. The various concentrations of the selection drugs were added so that the drugs were present at the initiation of log phase growth and viable cells were determined after 7-10 days of culture. The screening used data for functional mass at the end of the study to express viable cells as a percentage of the vehicle, or no-treatment control wells. […] The % viable cell mass data was plotted, and fitted typically with a four-parameter equation. The fitted equation was used to calculate the IC50 dose. The drugs tested were G418 (inactivated by neomycin phophotransferase, NPT), hygromycin (inactivated by hygromycin phosphotansferse, HPT), blasticidin (inactivated by blasticidin deaminase, BSD), and zeocin (bound by bleomycin binding protein, BBP). These antibiotics were obtained from Invitrogen/Gibco (Invitrogen SA, Barcelona).
(§3) The drugs, G418, Zeocin, hygromycin, and blasticidin were obtained and used as described earlier. The most important aspect of these studies was to identify the concentration needed to kill all non-transfected cells.

[14] = system: CRL5803; assay type: cell-based, human
Method: as §2, §3

[15] = system: CCL205; assay type: cell-based, human
Method: as §2, §3

[16] = system: CRL1440; assay type: cell-based, human
Method: as §2, §3

- IC50 [2]: 21 ± 2 µM
- IC50 ([3]; independent second transfection with the CD gene): 67 ± 8 µM
- IC50 ([3]; one of the transfections with the CD gene): 79 ± 9 µM
- IC50 [4]: 14 ± 2 µM
- IC50 [5]: 45 µM
- IC50 [6]: 48 µM
- IC50 ([8]; Homo sapiens, HT-1080, HT1080 clone with high expression of immunoreactive CD, dominantly growth arrest): 110 µM
SMILES: Nc1nc(=O)[nH]cc1F [5FC, 5-fluorocytosine]
- sensitivity of CD-transfected clones to 5FC [1]: unable to isolate clones that were sensitive to 5FC
- IC50 [7]: 55 µM
- fold lower toxic concentration of 5FC than achieved by others with HT1080 cells ([8]; versus Dachs et al. 1997): about 100 fold

SMILES: Cc1c(N)nc([C@H](CC(N)=O)NC[C@H](N)C(N)=O)nc1C(=O)N[C@H](C(=O)N[C@H](C)[C@@H](O)[C@H](C)C(=O)N[C@H](C(=O)NCCC1=N[C@@H](c2nc(C(=O)NCCCCN=C(N)N)cs2)CS1)[C@@H](C)O)[C@@H](O[C@@H]1O[C@@H](CO)[C@@H](O)[C@H](O)[C@@H]1O[C@H]1O[C@H](CO)[C@@H](O)[C@H](OC(N)=O)[C@@H]1O)c1cnc[nH]1 [Zeocin]
- IC50 for Zeocin (final viable mass) [9]: 27 µg/mL
- shift in resistance compared to cells with no Zeocin-resistance gene ([10]; CMV promoter): ~8 fold
- IC50 for growth in Zeocin ([10]; CMV promoter-BBP polyclone): 399 µg/mL
- growth IC50 in Zeocin ([11]; CRL 5803, CMV promoter-BBP): 2700 µg/mL
- growth IC50 in Zeocin ([11]; CRL 5803, RSV promoter-BBP): 2400 µg/mL
- growth IC50 in Zeocin ([11]; CRL 5803, SV40 promoter plasmid): 2800 µg/mL
- increase in the growth IC50 ([11]; CRL 5803, all promoters): ~5 fold
- doses at which cytotoxicity was evident ([11]; CRL 5803 CMV promoter polyclone, dose range extended to 5000 μg/ml): > 3000 µg/mL
- IC50 for growth in Zeocin ([12]; CMV plasmids): 2395 µg/mL
- IC50 for growth in Zeocin ([12]; SV40 promoter plasmid): 959 µg/mL
- concentration found to kill non-transfected cells [13]: 50 µg/mL
- concentration found to kill non-transfected cells [14]: 500 µg/mL
- concentration found to kill non-transfected cells [15]: <20 µg/mL
- concentration found to kill non-transfected cells [16]: 100 µg/mL
